Test results from US12630528B2, “Amino aryl derivative useful as diacylglycerol acyltransferase 2 inhibitor and use thereof” (LG CHEM, LTD., priority 2019, dated 2026).
pIC50: −log10 of the molar value.

Molecular target: T1, human DGAT2 (Homo sapiens, UniProt Q96PD7)
T1 construct: FLAG (DYKDDDDK); made in house; host or cells: Sf-21 insect cells (BacPAK baculovirus system); membrane fraction used
T1 sequence (Q96PD7 1-388): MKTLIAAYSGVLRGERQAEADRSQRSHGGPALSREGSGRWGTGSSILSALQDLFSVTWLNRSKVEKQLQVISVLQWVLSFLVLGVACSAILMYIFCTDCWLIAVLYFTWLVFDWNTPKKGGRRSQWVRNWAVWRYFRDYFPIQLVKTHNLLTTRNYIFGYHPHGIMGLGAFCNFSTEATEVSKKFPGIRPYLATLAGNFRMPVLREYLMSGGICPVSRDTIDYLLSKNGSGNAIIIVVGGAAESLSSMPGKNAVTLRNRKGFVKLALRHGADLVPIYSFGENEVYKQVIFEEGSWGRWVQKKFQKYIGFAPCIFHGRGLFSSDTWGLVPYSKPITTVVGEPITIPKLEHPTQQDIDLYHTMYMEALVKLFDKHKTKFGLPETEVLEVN
Assay: DGAT2 enzyme activity inhibition, Phospholipid FlashPlate SPA
Type: biochemical
Settings: recombinant human DGAT2 membrane protein from Sf-21 cells; inhibition of [14C]-TG production; 37° C.
Outline: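 Sf-21 membranes expressing recombinant human DGAT2 (2 μg) preincubated with compound (3 nM–10 μM, 1% DMSO) and 50 μM 1,2 sn-oleoyl glycerol, 20 min at 37 °C, then 1 μM [14C]oleoyl-CoA for 15 min. [14C]-TG counted by SPA; inhibition as % of untreated.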

Compound	pIC50
CCOc1ccccc1O[C@@H]1CCCN(c2cncc(Nc3cccc(N4CCC(C(C)(C)C(=O)O)CC4)n3)n2)C1 [Example 58, (R)-2-(1-(6-((6-(3-(2-ethoxyphenoxy)piperidin-1-yl)pyrazin-2-yl)amino)pyridin-2-yl)piperidin-4-yl)-2-methylpropanoic Acid]	6.51
CCOc1ccccc1O[C@@H]1CCCN(c2cncc(Nc3ccc(C(C)(C)C(=O)O)cc3)n2)C1 [Example 27, (R)-2-(4-((6-(3-(2-ethoxyphenoxy)piperidin-1-yl)pyrazin-2-yl)amino)phenyl)-2-methylpropanoic Acid]	< 5.00
CCOc1ccccc1O[C@@H]1CCCN(c2cccc(Nc3cccc(-c4cccc(CC(C)(C)C(=O)O)c4)n3)n2)C1 [Example 65, (R)-3-(3-(6-((6-(3-(2-ethoxyphenoxy)piperidin-1-yl)pyridin-2-yl)amino)pyridin-2-yl)phenyl)-2,2-dimethylpropanoic Acid]	5.82
(R)-2-(4-((6-(3-(2-ethoxyphenoxy)pyridin-1-yl)pyrazin-2-yl)amino)phenyl)-2-methylpropanoic Acid [Example 28]	< 5.00
CCOc1ccccc1O[C@@H]1CCCN(c2cncc(Nc3nc4cc(CC(=O)O)ccc4o3)n2)C1 [Example 12, (R)-2-(2-((6-(3-(2-ethoxyphenoxy)piperidin-1-yl)pyrazin-2-yl)amino)benzo[d]oxazol-5-yl)acetic Acid]	5.47
CCOc1ccccc1O[C@@H]1CCCN(c2cncc(Nc3cccc(N4CCC(C(=O)O)C4)n3)n2)C1 (stereo partly drawn) [Example 52, 1-(6-((6-((R)-3-(2-ethoxyphenoxy)piperidin-1-yl)pyrazin-2-yl)amino)pyridin-2-yl)pyrrolidine-3-carboxylic Acid]	6.14
CCOc1ccccc1O[C@@H]1CCCN(c2cncc(Nc3cccc(CC(C)(C)C(=O)O)n3)n2)C1 [Example 51, (R)-3-(6-((6-(3-(2-ethoxyphenoxy)piperidin-1-yl)pyrazin-2-yl)amino)pyridin-2-yl)-2,2-dimethylpropanoic Acid]	5.72
CCOc1ccccc1O[C@@H]1CCCN(c2cncc(Nc3cccc(-c4ccc(C(C)(C)C(=O)O)cc4)n3)n2)C1 [Example 61, (R)-2-(4-(6-((6-(3-(2-ethoxyphenoxy)piperidin-1-yl)pyrazin-2-yl)amino)pyridin-2-yl)phenyl)-2-methylpropanoic Acid]	7.04
CCOc1cccnc1O[C@@H]1CCCN(c2ccnc(Nc3cccc(-c4cccc(CC(C)(C)C(=O)O)c4)n3)n2)C1 [Example 68, (R)-3-(3-(6-((4-(3-((3-ethoxypyridin-2-yl)oxy)piperidin-1-yl)pyrimidin-2-yl)amino)pyridin-2-yl)phenyl)-2,2-dimethylpropanoic Acid]	5.48
CCOc1ccccc1O[C@@H]1CCCN(c2cncc(Nc3cccc(C(C)(C)C(=O)O)c3)n2)C1 [Example 29, (R)-2-(3-((6-(3-(2-ethoxyphenoxy)piperidin-1-yl)pyrazin-2-yl)amino)phenyl)-2-methylpropanoic Acid]	5.19
CCOc1ccccc1O[C@@H]1CCCN(c2cncc(Nc3cccc(N4CCCC(C(=O)O)C4)n3)n2)C1 (stereo partly drawn) [Example 54, 1-(6-((6-((R)-3-(2-ethoxyphenoxy)piperidin-1-yl)pyrazin-2-yl)amino)pyridin-2-yl)piperidine-3-carboxylic Acid]	6.04
CCOc1ccccc1O[C@@H]1CCCN(c2cncc(Nc3cc(C(=O)O)ccn3)n2)C1 [Example 33, (R)-2-((6-(3-(2-ethoxyphenoxy)piperidin-1-yl)pyrazin-2-yl)amino)isonicotinic Acid]	< 5.00
CCOc1ccccc1O[C@@H]1CCCN(c2cncc(Nc3nnnn3C)n2)C1 [Example 23, (R)-6-(3-(2-ethoxyphenoxy)piperidin-1-yl)-N-(1-methyl-1H-tetrazol-5-yl)pyrazin-2-amine]	6.57
CCOc1ccccc1O[C@@H]1CCCN(c2cncc(Nc3nc(C)c(C)s3)n2)C1 [Example 2, (R)—N-(6-(3-(2-ethoxyphenoxy)piperidin-1-yl)pyrazin-2-yl)-4,5-dimethylthiazol-2-amine]	5.19
CCOc1ccccc1O[C@@H]1CCCN(c2cncc(Nc3cccc(Oc4cccc(C(=O)O)c4)n3)n2)C1 [Example 87, (R)-3-((6-((6-(3-(2-ethoxyphenoxy)piperidin-1-yl)pyrazin-2-yl)amino)pyridin-2-yl)oxy)benzoic Acid]	6.30
CCOc1ccccc1O[C@@H]1CCCN(c2cncc(Nc3cc[nH]n3)n2)C1 [Example 19, (R)-6-(3-(2-ethoxyphenoxy)piperidin-1-yl)-N-(1H-pyrazol-3-yl)pyrazin-2-amine]	5.77

Results, then the compound that gave them:

pIC50	Compound
6.24	CCOc1ccccc1O[C@@H]1CCCN(c2cncc(Nc3cccc(OCc4ccc(C(=O)O)cc4)n3)n2)C1 [Example 99, (R)-4-(((6-((6-(3-(2-ethoxyphenoxy)piperidin-1-yl)pyrazin-2-yl)amino)pyridin-2-yl)oxy)methyl)benzoic Acid]
6.59	CCOc1ccccc1O[C@@H]1CCCN(c2cncc(Nc3nc(-c4cc(CC(C)(C)C(=O)O)ccc4F)ccc3F)n2)C1 [Example 107, (R)-3-(3-(6-((6-(3-(2-ethoxyphenoxy)piperidin-1-yl)pyrazin-2-yl)amino)-5-fluoropyridin-2-yl)-4-fluorophenyl)-2,2-dimethylpropanoic Acid]
6.59	CCOc1ccccc1O[C@@H]1CCCN(c2cncc(Nc3ccnc(-c4ccc(C(C)(C)C(=O)O)cc4)n3)n2)C1 [Example 169, (R)-2-(4-(4-((6-(3-(2-ethoxyphenoxy)piperidin-1-yl)pyrazin-2-yl)amino)pyrimidin-2-yl)phenyl)-2-methylpropanoic Acid]
5.74	CCOc1ccccc1O[C@@H]1CCCN(c2cncc(Nc3nccc(N4CCC(CC(=O)O)CC4)n3)n2)C1 [Example 125, (R)-2-(1-(2-((6-(3-(2-ethoxyphenoxy)piperidin-1-yl)pyrazin-2-yl)amino)pyrimidin-4-yl)piperidin-4-yl)acetic Acid]
6.07	CCOc1cccnc1O[C@@H]1CCCN(c2cncc(Nc3nccc(Oc4ccc(CC(=O)O)cc4)n3)n2)C1 [Example 163]
5.82	CCOc1ccccc1O[C@@H]1CCCN(c2cncc(Nc3ccc(C(F)(F)F)c(-c4ccc(C(C)(C)C(=O)O)cc4)n3)n2)C1 [Example 109, (R)-2-(4-(6-((6-(3-(2-ethoxyphenoxy)piperidin-1-yl)pyrazin-2-yl)amino)-3-(trifluoromethyl)pyridin-2-yl)phenyl)-2-methylpropanoic Acid]
6.62	CCOc1cccnc1O[C@@H]1CCCN(c2cncc(Nc3ccnc(-c4cccc(CC(C)(C)C(=O)O)c4)n3)n2)C1 [Example 171, (R)-3-(3-(4-((6-(3-((3-ethoxypyridin-2-yl)oxy)piperidin-1-yl)pyrazin-2-yl)amino)pyrimidin-2-yl)phenyl)-2,2-dimethylpropanoic Acid]
5.96	CCOc1ccccc1O[C@@H]1CCCN(c2cncc(Nc3nccc(-c4cccc(OC(C)(C)C(=O)O)c4)n3)n2)C1 [Example 158, (R)-2-(3-(2-((6-(3-(2-ethoxyphenoxy)piperidin-1-yl)pyrazin-2-yl)amino)pyrimidin-4-yl)phenoxy)-2-methylpropanoic Acid]
6.70	CCOc1ccccc1O[C@@H]1CCCN(c2cncc(Nc3cncc(-c4cccc(CC(C)(C)C(=O)O)c4)n3)n2)C1 [Example 112, (R)-3-(3-(6-((6-(3-(2-ethoxyphenoxy)piperidin-1-yl)pyrazin-2-yl)amino)pyrazin-2-yl)phenyl)-2,2-dimethylpropanoic Acid]
5.26	CCOc1ccccc1O[C@@H]1CCCN(c2cncc(Nc3nccc(N4CCC(C(=O)O)CC4)n3)n2)C1 [Example 123, (R)-1-(2-((6-(3-(2-ethoxyphenoxy)piperidin-1-yl)pyrazin-2-yl)amino)pyrimidin-4-yl)piperidine-4-carboxylic Acid]
5.92	CCOc1cccnc1O[C@@H]1CCCN(c2cncc(Nc3cccc(Oc4ccc(C(=O)O)cc4)n3)n2)C1 [Example 90, (R)-4-((6-((6-(3-((3-ethoxypyridin-2-yl)oxy)piperidin-1-yl)pyrazin-2-yl)amino)pyridin-2-yl)oxy)benzoic Acid]
5.54	CCOc1ccccc1O[C@@H]1CCCN(c2cncc(Nc3nccc(N4CCN(CC(=O)O)CC4)n3)n2)C1 [Example 127, (R)-2-(4-(2-((6-(3-(2-ethoxyphenoxy)piperidin-1-yl)pyrazin-2-yl)amino)pyrimidin-4-yl)piperazin-1-yl)acetic Acid]
6.72	CCOc1cccnc1O[C@@H]1CCCN(c2cncc(Nc3nc(-c4cccc(CC(C)(C)C(=O)O)c4)ccc3F)n2)C1 [Example 101, (R)-3-(3-(6-((6-(3-((3-ethoxypyridin-2-yl)oxy)piperidin-1-yl)pyrazin-2-yl)amino)-5-fluoropyridin-2-yl)phenyl)-2,2-dimethylpropanoic Acid]
5.51	CCOc1ccccc1O[C@@H]1CCCN(c2cccc(Nc3nccc(-c4cccc(CC(C)(C)C(=O)O)c4)n3)n2)C1 [Example 148, (R)-3-(3-(2-((6-(3-(2-ethoxyphenoxy)piperidin-1-yl)pyridin-2-yl)amino)pyrimidin-4-yl)phenyl)-2,2-dimethylpropanoic Acid]
